Patent publication US11040979B2, “Substituted pyrrolo[1,2-b]pyridazines for treating disorders related to KIT and PDGFR” (Blueprint Medicines Corporation, priority 2017, dated 2021)
pIC50: −log10 of the molar value.

Experiments:
Assay in all cases: Kinase profiling with recombinant enzyme, 33P-ATP filter-binding method
Type in all cases: biochemical
PDGFRα D842V = PDGFRα D842V (Homo sapiens (Human), UniProt P16234, D842V); conditions: poly[Glu:Tyr] (4:1), ATP (Km) 1 uM, read-out: INH-PDGFRα D842V (exon 18) IC50
PDGFRα D842V, sequence (P16234 24-1089 D842V): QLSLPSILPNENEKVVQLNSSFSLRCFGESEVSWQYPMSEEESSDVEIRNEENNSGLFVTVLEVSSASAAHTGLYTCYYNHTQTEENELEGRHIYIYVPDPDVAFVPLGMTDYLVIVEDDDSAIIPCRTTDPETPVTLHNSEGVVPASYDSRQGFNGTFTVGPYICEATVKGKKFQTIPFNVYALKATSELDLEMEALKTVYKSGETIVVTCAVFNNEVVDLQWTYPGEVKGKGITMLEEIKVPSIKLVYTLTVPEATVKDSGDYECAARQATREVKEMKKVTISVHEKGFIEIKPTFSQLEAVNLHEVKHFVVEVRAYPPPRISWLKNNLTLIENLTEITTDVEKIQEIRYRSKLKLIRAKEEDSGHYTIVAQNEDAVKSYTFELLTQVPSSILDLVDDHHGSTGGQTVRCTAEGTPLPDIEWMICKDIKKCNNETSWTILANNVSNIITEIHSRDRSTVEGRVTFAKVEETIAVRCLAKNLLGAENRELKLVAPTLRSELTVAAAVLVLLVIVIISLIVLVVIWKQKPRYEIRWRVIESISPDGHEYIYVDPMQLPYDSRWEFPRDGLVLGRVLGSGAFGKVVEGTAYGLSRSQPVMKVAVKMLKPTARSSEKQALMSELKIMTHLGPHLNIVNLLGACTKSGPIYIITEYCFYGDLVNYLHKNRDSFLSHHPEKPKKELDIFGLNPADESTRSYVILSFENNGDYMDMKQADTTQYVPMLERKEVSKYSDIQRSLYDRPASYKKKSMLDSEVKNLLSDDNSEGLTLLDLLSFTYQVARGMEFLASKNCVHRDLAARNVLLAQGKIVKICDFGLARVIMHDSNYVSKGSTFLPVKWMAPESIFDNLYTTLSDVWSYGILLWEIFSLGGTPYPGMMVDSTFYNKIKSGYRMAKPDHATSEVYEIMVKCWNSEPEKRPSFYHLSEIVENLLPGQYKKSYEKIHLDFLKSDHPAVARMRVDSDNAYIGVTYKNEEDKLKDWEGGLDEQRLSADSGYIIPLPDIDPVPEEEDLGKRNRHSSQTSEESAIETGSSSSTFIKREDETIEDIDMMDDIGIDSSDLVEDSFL
Experimental: (§1) KIT, KIT mutant, and PDGFRα mutant kinase profiling was performed with recombinant enzymes including wild-type KIT, KIT V560G, KIT V559D/T670I, V559D/V654A, and PDGFRα D842V. Kinase/substrate pairs were prepared in reaction buffer (20 mM Hepes (pH 7.5), 10 mM MgCl2, 1 mM EGTA, 0.02% Brij35, 0.02 mg/ml BSA, 0.1 mM Na3VO4, 2 mM DTT, 1% DMSO). Compounds were dissolved at 10 mM in 100% DMSO, serial diluted and added to the kinase/substrate mix in final concentrations from 10 uM to 0.5 pM. Compounds were incubated with the recombinant enzymes and substrates at room temperature for 20 minutes with their respective Km for ATP. ^33P-ATP (10 mCi/mL) was added to initiate the reaction. Incubation for two hours at room temperature was followed by spotting onto P81 ion exchange paper and detection of kinase activity by a filter-binding method.
(§2) Conditions for Specific Enzyme Assays:
(§3) Data was normalized to 0% and 100% inhibition controls and the IC50 calculated using a 4-parameter curve fit.

KIT V559D/T670I = KIT V559D/T670I (Homo sapiens (Human), UniProt P10721, T670I/V559D); conditions: c-KIT V559D/T670I, poly[Glu:Tyr] (4:1), ATP (Km) 5 uM; read-out: INH-KITV559D/T670I (exon 13) IC50
KIT V559D/T670I, sequence (P10721 26-976 V559D/T670I): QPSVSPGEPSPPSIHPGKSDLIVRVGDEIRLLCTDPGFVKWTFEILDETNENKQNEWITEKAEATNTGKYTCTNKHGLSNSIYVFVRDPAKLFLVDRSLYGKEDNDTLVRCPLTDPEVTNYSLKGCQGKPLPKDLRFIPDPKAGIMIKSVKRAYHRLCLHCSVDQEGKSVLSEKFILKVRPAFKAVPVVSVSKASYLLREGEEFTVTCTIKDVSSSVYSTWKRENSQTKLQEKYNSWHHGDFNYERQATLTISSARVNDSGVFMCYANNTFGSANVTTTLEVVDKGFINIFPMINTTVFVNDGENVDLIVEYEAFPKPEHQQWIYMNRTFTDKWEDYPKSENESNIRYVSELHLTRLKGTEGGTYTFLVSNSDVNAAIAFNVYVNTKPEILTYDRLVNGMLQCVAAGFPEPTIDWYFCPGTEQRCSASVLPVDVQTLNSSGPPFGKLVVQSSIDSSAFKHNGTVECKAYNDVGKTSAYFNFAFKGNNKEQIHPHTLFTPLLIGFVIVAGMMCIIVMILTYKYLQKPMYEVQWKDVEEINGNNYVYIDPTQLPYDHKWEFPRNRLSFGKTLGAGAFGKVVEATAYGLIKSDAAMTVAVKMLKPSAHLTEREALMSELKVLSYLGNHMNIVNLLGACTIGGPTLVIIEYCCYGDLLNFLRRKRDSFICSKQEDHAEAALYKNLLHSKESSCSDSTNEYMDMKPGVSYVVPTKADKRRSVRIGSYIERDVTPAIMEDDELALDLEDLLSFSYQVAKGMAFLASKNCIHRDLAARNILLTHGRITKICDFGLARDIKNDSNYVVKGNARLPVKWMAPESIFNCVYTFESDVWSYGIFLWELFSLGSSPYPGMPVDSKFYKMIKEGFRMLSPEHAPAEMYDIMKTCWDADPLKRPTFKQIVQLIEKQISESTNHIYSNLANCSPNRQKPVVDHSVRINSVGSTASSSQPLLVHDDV
Experimental: as §1, §2, §3

KIT V560G = KIT V560G (Homo sapiens (Human), UniProt P10721, V560G); conditions: c-KIT V560G, poly[Glu:Tyr] (4:1), ATP (Km) 20 uM; read-out: INH-KITV560G (exon 11) IC50
KIT V560G, sequence (P10721 26-976 V560G): as the sequence (P10721 26-976 V559D/T670I) above, with D534V, V535G, I645T counted along it
Experimental: as §1, §2, §3

wild-type KIT = wild-type KIT (Homo sapiens (Human), UniProt P10721); conditions: c-KIT WT, poly[Glu:Tyr] (4:1), ATP (Km) 100 uM; read-out: INH-KITWT IC50
wild-type KIT, sequence (P10721 26-976): as the sequence (P10721 26-976 V559D/T670I) above, with D534V, I645T counted along it
Experimental: as §1, §2, §3

KIT V559D/V654A = KIT V559D/V654A (Homo sapiens (Human), UniProt P10721, V559D/V654A); conditions: c-KIT V559D/V654A, poly[Glu:Tyr] (4:1), ATP (Km) 20 uM; read-out: INH-KITV559D/V654A (exon 13) IC50
KIT V559D/V654A, sequence (P10721 26-976 V559D/V654A): as the sequence (P10721 26-976 V559D/T670I) above, with V629A, I645T counted along it
Experimental: as §1, §2, §3

| pIC50 (PDGFRα D842V) | pIC50 (KIT V559D/T670I) | pIC50 (KIT V560G) | pIC50 (wild-type KIT) | pIC50 (KIT V559D/V654A) | SMILES |
| --- | --- | --- | --- | --- | --- |
| > 9.00 | 8.00 to 9.00 | 8.00 to 9.00 | < 7.00 | 8.00 to 9.00 | Cn1cc(-c2cc3c(N4CCN(c5ncc([C@@](C)(N)c6ccc(F)cc6)cn5)CC4)ccnn3c2)cn1 [Compound 1, (S)-1-(4-fluorophenyl)-1-(2-(4-(6-(1-methyl-1H-pyrazol-4-yl)pyrrolo[1,2-b]pyridazin-4-yl)piperazin-1-yl)pyrimidin-5-yl)ethanamine] |
| > 9.00 | 8.00 to 9.00 | 7.00 to 8.00 | < 7.00 | 7.00 to 8.00 | Cn1cc(-c2cc3c(N4CCN(c5ncc([C@@](C)(N)c6ccc(F)cc6)cn5)CC4)c(F)cnn3c2)cn1 [Compound 2, (S)-1-(2-(4-(3-fluoro-6-(1-methyl-11H-pyrazol-4-yl)pyrrolo[1,2-b]pyridazin-4-yl)piperazin-1-yl)pyrimidin-5-yl)-1-(4-fluorophenyl)ethanamine] |
| > 9.00 | 8.00 to 9.00 | 7.00 to 8.00 | < 7.00 | < 7.00 | Cn1cc(-c2cc3c(N4CCN(c5ncc([C@@](C)(N)c6ccc(F)cc6)cn5)CC4)c(Cl)cnn3c2)cn1 [Compound 3, (S)-1-(2-(4-(3-chloro-6-(1-methyl-1H-pyrazol-4-yl)pyrrolo[1,2-b]pyridazin-4-yl)piperazin-1-yl)pyrimidin-5-yl)-1-(4-fluorophenyl)ethanamine] |
| > 9.00 | 8.00 to 9.00 | 8.00 to 9.00 | < 7.00 | 7.00 to 8.00 | Cn1cc(-c2cc3c(N4CCN(c5ncc([C@@](C)(N)c6ccc(F)cc6)cn5)CC4)c(C#N)cnn3c2)cn1 [Compound 4, (S)-4-(4-(5-(1-amino-1-(4-fluorophenyl)ethyl)pyrimidin-2-yl)piperazin-1-yl)-6-(1-methyl-1H-pyrazol-4-yl)pyrrolo[1,2-b]pyridazine-3-carbonitrile] |
